# In PubChem BioAssay (NCI):
#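 Interpolation was linear, between the two tested concentrations surrounding the appropriate level; five concentrations were tested over 48 hours in 96-well plates. Abbreviation: GI50, concentration required for 50% inhibition of growth. TGI denotes the concentration required for complete inhibition of growth.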
# Legend:
# Test in all cases: inhibition of tumour cell growth, NCI panel, 48 h
# 786-0 renal = system: 786-0 renal
# SN12C renal = system: SN12C renal
# ACHN renal = system: ACHN renal
# CCRF-CEM leukemia = system: CCRF-CEM leukemia
# UACC-62 melanoma = system: UACC-62 melanoma
# OVCAR-8 ovarian = system: OVCAR-8 ovarian
# RPMI-8226 leukemia = system: RPMI-8226 leukemia
# HL-60(TB) leukemia = system: HL-60(TB) leukemia
# OVCAR-3 ovarian = system: OVCAR-3 ovarian
# IGROV1 ovarian = system: IGROV1 ovarian
smiles,measurement,setting,value
CC(=O)[O-].CC(=O)[O-].[NH2-].[Pt+2].c1ccc2cnccc2c1,GI50,786-0 renal,37.9 µM
same,TGI,786-0 renal,> 100 µM
same,GI50,SN12C renal,28.6 µM
same,TGI,SN12C renal,> 100 µM
same,GI50,ACHN renal,2.26 µM
same,TGI,ACHN renal,13.4 µM
same,GI50,CCRF-CEM leukemia,14.1 µM
same,TGI,CCRF-CEM leukemia,> 100 µM
same,GI50,UACC-62 melanoma,30.3 µM
same,TGI,UACC-62 melanoma,> 100 µM
same,GI50,OVCAR-8 ovarian,3.72 µM
same,TGI,OVCAR-8 ovarian,21.7 µM
same,GI50,RPMI-8226 leukemia,27.7 µM
same,TGI,RPMI-8226 leukemia,> 100 µM
same,GI50,HL-60(TB) leukemia,9.62 µM
same,TGI,HL-60(TB) leukemia,87.5 µM
same,GI50,OVCAR-3 ovarian,42.2 µM
same,TGI,OVCAR-3 ovarian,> 100 µM
same,GI50,IGROV1 ovarian,24.6 µM
same,TGI,IGROV1 ovarian,> 100 µM
